In US20240158446A1, “CYCLIC COMPOUND HAVING SELECTIVE INHIBITORY ACTION ON KRAS OVER HRAS AND NRAS” (CHUGAI SEIYAKU KABUSHIKI KAISHA, priority 2021, published 2024):
*1 amine or outer side, *2 acyl side, *3 side chain or, on linkers, in order; H or OH if unused. Where a SMILES comes first, the peptide text is derived from it. Bridges are numbered along the chain shown (N, C = ends). [ ]: non-standard residue; d: D form. The star is where a group is joined. hPhe(3-Cl-4-CF3) = N[C@@H](CCc1ccc(C(F)(F)F)c(Cl)c1)C(=O)O; NPrPhe(4-CF3) = CCCN[C@@H](Cc1ccc(C(F)(F)F)cc1)C(=O)O; Pro(4-spirocPr) = O=C(O)[C@@H]1CC2(CC2)CN1; Abu(4,4,4-F3) = N[C@@H](CC(F)(F)F)C(=O)O; Pip(4,4-F2) = O=C(O)[C@@H]1CC(F)(F)CCN1; NMeGly(cPent) = CN[C@H](C(=O)O)C1CCCC1; Gly(cPent) = N[C@H](C(=O)O)C1CCCC1; Hyp = O=C(O)[C@@H]1C[C@@H](O)CN1; Gly(cBu) = N[C@H](C(=O)O)C1CCC1; NMeD = CN[C@@H](CC(=O)O)C(=O)O; NMeL = CN[C@@H](CC(C)C)C(=O)O; X12 = N#CCN(CC(=O)[*:2])[*:1]; Pip = O=C(O)[C@@H]1CCCCN1; Morpholide = C1CN(*)CCO1; NMeA = CN[C@@H](C)C(=O)O; Ac5c = NC1(C(=O)O)CCCC1; Aze = O=C(O)[C@@H]1CCN1; NcPrGly = O=C(O)CNC1CC1; Abu = CC[C@H](N)C(=O)O; NPrGly = CCCNCC(=O)O; Sar = CNCC(=O)O

How the values were obtained:
[1] = target: GDP-bound NRAS wild-type protein (Homo sapiens, UniProt P01111); experiment: Binding to NRAS by surface plasmon resonance (SPR), Single Cycle Kinetics; conditions: SPR, GDP-bound NRAS wild-type protein vs GDP-bound KRAS wild-type protein
Chain of GDP-bound NRAS wild-type protein (P01111 whole entry): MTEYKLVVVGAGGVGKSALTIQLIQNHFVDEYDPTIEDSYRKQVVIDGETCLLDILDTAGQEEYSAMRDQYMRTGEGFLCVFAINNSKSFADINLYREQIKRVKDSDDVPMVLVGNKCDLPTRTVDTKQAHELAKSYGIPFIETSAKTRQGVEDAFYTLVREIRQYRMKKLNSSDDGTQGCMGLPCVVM

[2] = target: GDP-bound HRAS wild-type protein (Homo sapiens, UniProt P01112); experiment: Binding to HRAS by surface plasmon resonance (SPR), Single Cycle Kinetics; conditions: SPR, GDP-bound HRAS wild-type protein vs GDP-bound KRAS wild-type protein
Chain of GDP-bound HRAS wild-type protein (P01112 whole entry): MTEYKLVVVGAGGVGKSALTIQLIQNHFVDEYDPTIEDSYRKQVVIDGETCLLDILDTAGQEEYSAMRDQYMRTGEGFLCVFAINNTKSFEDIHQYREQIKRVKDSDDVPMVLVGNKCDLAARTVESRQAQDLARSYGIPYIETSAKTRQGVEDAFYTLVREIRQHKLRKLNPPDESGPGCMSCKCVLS

[3] = target: GDP-bound KRAS wild-type protein (Homo sapiens, UniProt P01116); experiment: Binding to KRAS by surface plasmon resonance (SPR), Single Cycle Kinetics; conditions: SPR Single Cycle Kinetics, GDP-bound KRAS wild-type protein, 1:1 binding model; read-out: KRAS KD
Chain of GDP-bound KRAS wild-type protein (P01116 whole entry): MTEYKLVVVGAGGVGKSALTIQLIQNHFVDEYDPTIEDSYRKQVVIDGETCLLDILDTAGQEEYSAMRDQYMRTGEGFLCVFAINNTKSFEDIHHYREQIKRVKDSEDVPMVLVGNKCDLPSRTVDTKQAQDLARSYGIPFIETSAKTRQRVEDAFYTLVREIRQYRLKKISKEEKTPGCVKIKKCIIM

Row | Compound | NRAS/KRAS (ratio of KD value for NRAS to KD value for KRAS) [1] | HRAS/KRAS (ratio of KD value for HRAS to KD value for KRAS) [2] | Kd [3] [nM]
1 | CCCN1C(=O)[C@@H]2CCN2C(=O)[C@H](C)N(C)C(=O)[C@H](CC)NC(=O)[C@H](CC(C)C)N(C)C(=O)C[C@@H](C(=O)N2CCOCC2)N(C)C(=O)[C@H](C2CCCC2)N(C)C(=O)C2(CCCC2)NC(=O)[C@@H]2CCCN2C(=O)[C@H](CCc2ccc(C(F)(F)F)c(Cl)c2)NC(=O)CN(C)C(=O)[C@@H]1Cc1ccc(C(F)(F)F)cc1 [PP0269] ([NMeL][Abu][NMeA][Aze][NPrPhe(4-CF3)][Sar][hPhe(3-Cl-4-CF3)]P[Ac5c][NMeGly(cPent)][NMeD]-Morpholide; lactam N-11) | C (A compound having a KD ratio of 0.1 or more and less than 3 is denoted as C) | B (a compound having 3 or more and less than 10 is denoted as B) | 1.4
2 | CCCN1C(=O)[C@@H]2CCN2C(=O)[C@H](C)N(C)C(=O)[C@H](CC(F)(F)F)NC(=O)[C@H](CC(C)C)N(C)C(=O)C[C@@H](C(=O)N2CCOCC2)N(C)C(=O)[C@H](C2CCCC2)N(C)C(=O)C2(CCCC2)NC(=O)[C@@H]2CCCN2C(=O)[C@H](CCc2ccc(C(F)(F)F)c(Cl)c2)NC(=O)CN(C)C(=O)[C@@H]1Cc1ccc(C(F)(F)F)cc1 [PP0270] ([NMeL][Abu(4,4,4-F3)][NMeA][Aze][NPrPhe(4-CF3)][Sar][hPhe(3-Cl-4-CF3)]P[Ac5c][NMeGly(cPent)][NMeD]-Morpholide; lactam N-11) | C (A compound having a KD ratio of 0.1 or more and less than 3 is denoted as C) | B (a compound having 3 or more and less than 10 is denoted as B) | 0.76
3 | CCCN1C(=O)[C@@H]2CCN2C(=O)[C@H](C)N(C)C(=O)[C@H](C2CCC2)NC(=O)[C@H](CC(C)C)N(C)C(=O)C[C@@H](C(=O)N2CCOCC2)N(C)C(=O)[C@H](C2CCCC2)N(C)C(=O)C2(CCCC2)NC(=O)[C@@H]2CCCN2C(=O)[C@H](CCc2ccc(C(F)(F)F)c(Cl)c2)NC(=O)CN(C)C(=O)[C@@H]1Cc1ccc(C(F)(F)F)cc1 [PP0271] ([NMeL][Gly(cBu)][NMeA][Aze][NPrPhe(4-CF3)][Sar][hPhe(3-Cl-4-CF3)]P[Ac5c][NMeGly(cPent)][NMeD]-Morpholide; lactam N-11) | C (A compound having a KD ratio of 0.1 or more and less than 3 is denoted as C) | B (a compound having 3 or more and less than 10 is denoted as B) | 0.22
4 | CCCN1C(=O)[C@@H]2CCN2C(=O)[C@H](C)N(C)C(=O)[C@H](C2CCCC2)NC(=O)[C@H](CC(C)C)N(C)C(=O)C[C@@H](C(=O)N2CCOCC2)N(C)C(=O)[C@H](C2CCCC2)N(C)C(=O)C2(CCCC2)NC(=O)[C@@H]2CCCN2C(=O)[C@H](CCc2ccc(C(F)(F)F)c(Cl)c2)NC(=O)CN(C)C(=O)[C@@H]1Cc1ccc(C(F)(F)F)cc1 [PP0272] ([NMeL][Gly(cPent)][NMeA][Aze][NPrPhe(4-CF3)][Sar][hPhe(3-Cl-4-CF3)]P[Ac5c][NMeGly(cPent)][NMeD]-Morpholide; lactam N-11) | C (A compound having a KD ratio of 0.1 or more and less than 3 is denoted as C) | B (a compound having 3 or more and less than 10 is denoted as B) | 0.17
5 | CCCN1C(=O)[C@@H]2CCN2C(=O)CN(C2CC2)C(=O)[C@H]([C@@H](C)CC)NC(=O)[C@H](CC(C)C)N(C)C(=O)C[C@@H](C(=O)N2CCOCC2)N(C)C(=O)[C@H](C2CCCC2)N(C)C(=O)C2(CCCC2)NC(=O)[C@@H]2CCCN2C(=O)[C@H](CCc2ccc(C(F)(F)F)c(Cl)c2)NC(=O)CN(C)C(=O)[C@@H]1Cc1ccc(C(F)(F)F)cc1 [PP0273] ([NMeL]I[NcPrGly][Aze][NPrPhe(4-CF3)][Sar][hPhe(3-Cl-4-CF3)]P[Ac5c][NMeGly(cPent)][NMeD]-Morpholide; lactam N-11) | C (A compound having a KD ratio of 0.1 or more and less than 3 is denoted as C) | B (a compound having 3 or more and less than 10 is denoted as B) | 0.56
6 | CCCN1CC(=O)N2CC[C@H]2C(=O)N(CCC)[C@@H](Cc2ccc(C(F)(F)F)cc2)C(=O)N(C)CC(=O)N[C@@H](CCc2ccc(C(F)(F)F)c(Cl)c2)C(=O)N2CCC[C@H]2C(=O)NC2(CCCC2)C(=O)N(C)[C@@H](C2CCCC2)C(=O)N(C)[C@H](C(=O)N2CCOCC2)CC(=O)N(C)[C@@H](CC(C)C)C(=O)N[C@@H]([C@@H](C)CC)C1=O [PP0274] ([NMeL]I[NPrGly][Aze][NPrPhe(4-CF3)][Sar][hPhe(3-Cl-4-CF3)]P[Ac5c][NMeGly(cPent)][NMeD]-Morpholide; lactam N-11) | C (A compound having a KD ratio of 0.1 or more and less than 3 is denoted as C) | B (a compound having 3 or more and less than 10 is denoted as B) | 0.47
7 | CCCN1C(=O)[C@@H]2CCN2C(=O)CN(CC#N)C(=O)[C@H]([C@@H](C)CC)NC(=O)[C@H](CC(C)C)N(C)C(=O)C[C@@H](C(=O)N2CCOCC2)N(C)C(=O)[C@H](C2CCCC2)N(C)C(=O)C2(CCCC2)NC(=O)[C@@H]2CCCN2C(=O)[C@H](CCc2ccc(C(F)(F)F)c(Cl)c2)NC(=O)CN(C)C(=O)[C@@H]1Cc1ccc(C(F)(F)F)cc1 [PP0275] ([NMeL]I[X12][Aze][NPrPhe(4-CF3)][Sar][hPhe(3-Cl-4-CF3)]P[Ac5c][NMeGly(cPent)][NMeD]-Morpholide; lactam N-11) | C (A compound having a KD ratio of 0.1 or more and less than 3 is denoted as C) | C (A compound having a KD ratio of 0.1 or more and less than 3 is denoted as C) | 0.3
8 | CCCN1C(=O)[C@@H]2CCN2C(=O)[C@H](C)N(C)C(=O)[C@H]([C@@H](C)CC)NC(=O)[C@H](CC(C)C)N(C)C(=O)C[C@@H](C(=O)N2CCOCC2)N(C)C(=O)[C@H](C2CCCC2)N(C)C(=O)C2(CCCC2)NC(=O)[C@@H]2CCN2C(=O)[C@H](CCc2ccc(C(F)(F)F)c(Cl)c2)NC(=O)CN(C)C(=O)[C@@H]1Cc1ccc(C(F)(F)F)cc1 [PP0281] ([NMeL]I[NMeA][Aze][NPrPhe(4-CF3)][Sar][hPhe(3-Cl-4-CF3)][Aze][Ac5c][NMeGly(cPent)][NMeD]-Morpholide; lactam N-11) | C (A compound having a KD ratio of 0.1 or more and less than 3 is denoted as C) | C (A compound having a KD ratio of 0.1 or more and less than 3 is denoted as C) | 0.48
9 | CCCN1C(=O)[C@@H]2CCN2C(=O)[C@H](C)N(C)C(=O)[C@H]([C@@H](C)CC)NC(=O)[C@H](CC(C)C)N(C)C(=O)C[C@@H](C(=O)N2CCOCC2)N(C)C(=O)[C@H](C2CCCC2)N(C)C(=O)C2(CCCC2)NC(=O)[C@@H]2CC3(CC3)CN2C(=O)[C@H](CCc2ccc(C(F)(F)F)c(Cl)c2)NC(=O)CN(C)C(=O)[C@@H]1Cc1ccc(C(F)(F)F)cc1 [PP0282] ([NMeL]I[NMeA][Aze][NPrPhe(4-CF3)][Sar][hPhe(3-Cl-4-CF3)][Pro(4-spirocPr)][Ac5c][NMeGly(cPent)][NMeD]-Morpholide; lactam N-11) | C (A compound having a KD ratio of 0.1 or more and less than 3 is denoted as C) | C (A compound having a KD ratio of 0.1 or more and less than 3 is denoted as C) | 0.11
10 | CCCN1C(=O)[C@@H]2CCN2C(=O)[C@H](C)N(C)C(=O)[C@H]([C@@H](C)CC)NC(=O)[C@H](CC(C)C)N(C)C(=O)C[C@@H](C(=O)N2CCOCC2)N(C)C(=O)[C@H](C2CCCC2)N(C)C(=O)C2(CCCC2)NC(=O)[C@@H]2C[C@@H](OC)CN2C(=O)[C@H](CCc2ccc(C(F)(F)F)c(Cl)c2)NC(=O)CN(C)C(=O)[C@@H]1Cc1ccc(C(F)(F)F)cc1 [PP0283] ([NMeL]I[NMeA][Aze][NPrPhe(4-CF3)][Sar][hPhe(3-Cl-4-CF3)][Hyp](Me)[Ac5c][NMeGly(cPent)][NMeD]-Morpholide; lactam N-11) | C (A compound having a KD ratio of 0.1 or more and less than 3 is denoted as C) | C (A compound having a KD ratio of 0.1 or more and less than 3 is denoted as C) | 0.063
11 | CCCN1C(=O)[C@@H]2CCN2C(=O)[C@H](C)N(C)C(=O)[C@H]([C@@H](C)CC)NC(=O)[C@H](CC(C)C)N(C)C(=O)C[C@@H](C(=O)N2CCOCC2)N(C)C(=O)[C@H](C2CCCC2)N(C)C(=O)C2(CCCC2)NC(=O)[C@@H]2CCCCN2C(=O)[C@H](CCc2ccc(C(F)(F)F)c(Cl)c2)NC(=O)CN(C)C(=O)[C@@H]1Cc1ccc(C(F)(F)F)cc1 [PP0284] ([NMeL]I[NMeA][Aze][NPrPhe(4-CF3)][Sar][hPhe(3-Cl-4-CF3)][Pip][Ac5c][NMeGly(cPent)][NMeD]-Morpholide; lactam N-11) | C (A compound having a KD ratio of 0.1 or more and less than 3 is denoted as C) | B (a compound having 3 or more and less than 10 is denoted as B) | 0.67
12 | CCCN1C(=O)[C@@H]2CCN2C(=O)[C@H](C)N(C)C(=O)[C@H]([C@@H](C)CC)NC(=O)[C@H](CC(C)C)N(C)C(=O)C[C@@H](C(=O)N2CCOCC2)N(C)C(=O)[C@H](C2CCCC2)N(C)C(=O)C2(CCCC2)NC(=O)[C@@H]2CC(F)(F)CCN2C(=O)[C@H](CCc2ccc(C(F)(F)F)c(Cl)c2)NC(=O)CN(C)C(=O)[C@@H]1Cc1ccc(C(F)(F)F)cc1 [PP0285] ([NMeL]I[NMeA][Aze][NPrPhe(4-CF3)][Sar][hPhe(3-Cl-4-CF3)][Pip(4,4-F2)][Ac5c][NMeGly(cPent)][NMeD]-Morpholide; lactam N-11) | C (A compound having a KD ratio of 0.1 or more and less than 3 is denoted as C) | B (a compound having 3 or more and less than 10 is denoted as B) | 0.75
